Measured values taken from patent publication US8959984B2, “Proteome-wide quantification of small molecule binding to cellular target proteins” (priority 2007, dated 2015).

How the values were obtained:
Experiment in all cases: binding to VI16742 beads (HeLa lysate, SILAC MS)
2-PDE (IPI00174390) = biological target: T1, 2-PDE (IPI00174390) (Homo sapiens, UniProt Q6L8Q7)
T1 construct: endogenous in cells; host or cells: HeLa S3 cell lysate
T1 sequence (Q6L8Q7 43-609): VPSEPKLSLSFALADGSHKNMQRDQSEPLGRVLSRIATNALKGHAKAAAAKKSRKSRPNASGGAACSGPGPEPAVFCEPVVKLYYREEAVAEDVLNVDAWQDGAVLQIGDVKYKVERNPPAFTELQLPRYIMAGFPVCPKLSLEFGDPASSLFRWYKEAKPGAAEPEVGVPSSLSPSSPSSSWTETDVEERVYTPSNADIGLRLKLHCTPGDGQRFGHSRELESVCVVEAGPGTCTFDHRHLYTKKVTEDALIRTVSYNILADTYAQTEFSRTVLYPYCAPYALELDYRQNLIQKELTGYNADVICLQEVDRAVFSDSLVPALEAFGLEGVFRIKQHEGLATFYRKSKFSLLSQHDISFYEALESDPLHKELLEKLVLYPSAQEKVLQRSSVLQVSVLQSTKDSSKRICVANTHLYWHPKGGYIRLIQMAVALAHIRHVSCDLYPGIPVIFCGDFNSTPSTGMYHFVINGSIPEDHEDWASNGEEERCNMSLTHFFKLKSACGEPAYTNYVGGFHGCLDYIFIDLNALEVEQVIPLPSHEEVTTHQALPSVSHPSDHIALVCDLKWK
How it was run: (§1)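 Kinases were captured on a resin carrying the broadly selective pyrido[2,3-d]pyrimidine-based kinase inhibitor. Proteins specifically retained by the inhibitor resin were scored as binders.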

CDK4 (IPI00007811) = biological target: T2, CDK4 (IPI00007811) (Homo sapiens, UniProt P11802)
T2 construct: endogenous in cells; host or cells: HeLa S3
T2 sequence (P11802 whole entry): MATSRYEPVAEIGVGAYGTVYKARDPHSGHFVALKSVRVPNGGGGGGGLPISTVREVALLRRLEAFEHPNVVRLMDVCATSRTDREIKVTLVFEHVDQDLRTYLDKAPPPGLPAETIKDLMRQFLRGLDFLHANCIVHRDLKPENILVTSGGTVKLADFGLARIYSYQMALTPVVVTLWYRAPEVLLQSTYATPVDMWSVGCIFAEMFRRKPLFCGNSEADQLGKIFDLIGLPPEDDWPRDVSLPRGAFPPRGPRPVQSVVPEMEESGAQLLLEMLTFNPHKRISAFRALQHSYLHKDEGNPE
How it was run: as §1

DAPK2 (IPI00033388) = biological target: T3, DAPK2 (IPI00033388) (Homo sapiens, UniProt Q9UIK4)
T3 construct: endogenous in cells; host or cells: HeLa S3
T3 sequence (Q9UIK4 whole entry): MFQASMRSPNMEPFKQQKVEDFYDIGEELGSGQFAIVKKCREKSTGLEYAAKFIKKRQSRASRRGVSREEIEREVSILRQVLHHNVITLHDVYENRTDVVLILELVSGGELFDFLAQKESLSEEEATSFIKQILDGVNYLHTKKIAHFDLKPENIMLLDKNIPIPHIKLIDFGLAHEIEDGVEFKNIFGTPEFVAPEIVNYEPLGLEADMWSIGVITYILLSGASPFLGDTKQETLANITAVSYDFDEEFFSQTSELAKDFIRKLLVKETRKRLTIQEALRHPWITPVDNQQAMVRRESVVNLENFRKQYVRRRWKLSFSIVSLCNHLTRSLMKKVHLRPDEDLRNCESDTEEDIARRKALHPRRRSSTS
How it was run: as §1

FN3KRP (IPI00099986) = biological target: T4, FN3KRP (IPI00099986) (Homo sapiens, UniProt Q9HA64)
T4 construct: endogenous in cells; host or cells: HeLa S3
T4 sequence (Q9HA64 1-309): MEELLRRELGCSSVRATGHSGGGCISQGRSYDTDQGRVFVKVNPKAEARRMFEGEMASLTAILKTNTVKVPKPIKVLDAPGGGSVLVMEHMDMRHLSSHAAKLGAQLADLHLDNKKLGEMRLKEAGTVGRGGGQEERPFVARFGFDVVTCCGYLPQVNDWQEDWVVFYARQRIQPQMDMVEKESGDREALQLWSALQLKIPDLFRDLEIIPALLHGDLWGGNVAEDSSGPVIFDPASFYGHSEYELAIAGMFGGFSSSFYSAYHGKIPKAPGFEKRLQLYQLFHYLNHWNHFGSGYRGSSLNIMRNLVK
How it was run: as §1

LOK (STK10, IPI00304742) = biological target: T5, LOK (STK10, IPI00304742) (Homo sapiens, UniProt O94804)
T5 construct: endogenous in cells; host or cells: HeLa S3
T5 sequence (O94804 whole entry): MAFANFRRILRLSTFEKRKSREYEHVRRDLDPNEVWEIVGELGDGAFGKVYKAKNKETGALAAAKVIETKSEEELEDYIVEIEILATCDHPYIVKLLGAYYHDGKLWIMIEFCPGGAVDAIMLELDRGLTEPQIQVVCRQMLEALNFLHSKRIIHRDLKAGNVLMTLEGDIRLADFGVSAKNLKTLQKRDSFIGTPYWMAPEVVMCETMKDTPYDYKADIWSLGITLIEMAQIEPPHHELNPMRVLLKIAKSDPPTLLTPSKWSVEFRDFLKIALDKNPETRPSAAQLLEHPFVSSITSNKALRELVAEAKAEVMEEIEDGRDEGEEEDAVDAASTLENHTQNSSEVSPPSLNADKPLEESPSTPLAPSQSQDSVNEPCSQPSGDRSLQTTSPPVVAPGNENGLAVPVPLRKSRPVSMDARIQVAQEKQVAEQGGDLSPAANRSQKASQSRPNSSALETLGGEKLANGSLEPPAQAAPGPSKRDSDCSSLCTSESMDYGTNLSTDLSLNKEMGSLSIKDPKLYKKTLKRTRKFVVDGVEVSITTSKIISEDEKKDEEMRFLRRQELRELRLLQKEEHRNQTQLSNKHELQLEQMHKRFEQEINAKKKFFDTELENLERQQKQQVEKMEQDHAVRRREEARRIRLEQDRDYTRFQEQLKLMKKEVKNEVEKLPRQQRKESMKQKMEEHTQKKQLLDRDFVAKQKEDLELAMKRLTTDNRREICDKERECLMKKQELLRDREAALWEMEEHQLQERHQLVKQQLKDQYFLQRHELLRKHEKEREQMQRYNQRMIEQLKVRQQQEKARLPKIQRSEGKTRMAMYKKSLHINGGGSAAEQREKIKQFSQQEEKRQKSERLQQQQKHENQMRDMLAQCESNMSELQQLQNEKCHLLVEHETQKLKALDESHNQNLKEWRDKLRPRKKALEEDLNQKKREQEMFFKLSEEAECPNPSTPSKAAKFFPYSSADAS
How it was run: as §1

MAP2K1 (IPI00219604) = biological target: T6, MAP2K1 (IPI00219604) (Homo sapiens, UniProt Q02750)
T6 construct: endogenous in cells; host or cells: HeLa S3
T6 sequence (Q02750 whole entry): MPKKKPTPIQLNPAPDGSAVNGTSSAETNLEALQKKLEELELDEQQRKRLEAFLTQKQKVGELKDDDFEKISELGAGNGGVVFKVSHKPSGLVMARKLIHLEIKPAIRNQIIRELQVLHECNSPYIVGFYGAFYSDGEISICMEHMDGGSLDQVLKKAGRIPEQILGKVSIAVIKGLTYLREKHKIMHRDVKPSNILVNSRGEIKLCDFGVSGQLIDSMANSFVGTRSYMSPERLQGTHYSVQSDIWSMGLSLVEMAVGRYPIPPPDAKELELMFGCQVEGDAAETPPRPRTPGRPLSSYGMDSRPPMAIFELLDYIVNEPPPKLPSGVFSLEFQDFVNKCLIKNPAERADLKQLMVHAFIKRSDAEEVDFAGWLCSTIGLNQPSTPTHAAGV
How it was run: as §1

MAP2K3 (IPI00218858) = biological target: T7, MAP2K3 (IPI00218858) (Homo sapiens, UniProt P46734)
T7 construct: endogenous in cells; host or cells: HeLa S3
T7 sequence (P46734 1-347): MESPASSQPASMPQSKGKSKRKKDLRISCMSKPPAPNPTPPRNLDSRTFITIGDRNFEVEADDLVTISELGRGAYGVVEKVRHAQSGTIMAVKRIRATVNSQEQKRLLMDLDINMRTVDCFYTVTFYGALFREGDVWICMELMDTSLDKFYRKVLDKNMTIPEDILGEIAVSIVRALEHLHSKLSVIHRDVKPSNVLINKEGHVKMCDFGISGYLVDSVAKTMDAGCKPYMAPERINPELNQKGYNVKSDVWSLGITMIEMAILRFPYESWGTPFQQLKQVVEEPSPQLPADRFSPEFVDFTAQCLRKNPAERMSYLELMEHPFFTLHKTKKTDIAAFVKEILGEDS
How it was run: as §1

[1] = biological target: T8, MSK1 (RPS6KA5, IPI00335101) (Homo sapiens, UniProt O75582)
T8 construct: endogenous in cells; host or cells: HeLa S3
T8 sequence (O75582 whole entry): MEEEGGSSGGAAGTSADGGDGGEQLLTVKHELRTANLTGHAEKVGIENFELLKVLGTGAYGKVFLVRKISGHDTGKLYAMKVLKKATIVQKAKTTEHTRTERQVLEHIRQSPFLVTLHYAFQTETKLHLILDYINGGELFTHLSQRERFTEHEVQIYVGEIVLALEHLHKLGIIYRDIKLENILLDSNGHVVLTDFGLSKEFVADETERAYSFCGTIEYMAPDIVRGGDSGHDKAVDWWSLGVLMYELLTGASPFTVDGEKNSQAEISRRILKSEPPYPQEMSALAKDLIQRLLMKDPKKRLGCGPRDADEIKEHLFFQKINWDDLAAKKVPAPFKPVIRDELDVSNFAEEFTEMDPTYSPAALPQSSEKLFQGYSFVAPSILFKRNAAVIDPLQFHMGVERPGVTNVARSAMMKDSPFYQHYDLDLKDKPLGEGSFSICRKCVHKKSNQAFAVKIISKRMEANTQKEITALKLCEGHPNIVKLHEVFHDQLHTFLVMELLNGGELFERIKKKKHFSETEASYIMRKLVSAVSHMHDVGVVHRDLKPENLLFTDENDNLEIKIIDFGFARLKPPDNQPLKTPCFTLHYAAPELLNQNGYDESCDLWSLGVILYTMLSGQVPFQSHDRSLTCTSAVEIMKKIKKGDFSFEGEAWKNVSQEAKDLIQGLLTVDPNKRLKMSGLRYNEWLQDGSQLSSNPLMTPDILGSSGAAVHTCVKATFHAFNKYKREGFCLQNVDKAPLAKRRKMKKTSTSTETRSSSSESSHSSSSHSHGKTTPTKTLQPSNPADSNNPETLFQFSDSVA
How it was run: as §1

PIK3C2A (IPI00002580) = biological target: T9, PIK3C2A (IPI00002580) (Homo sapiens, UniProt O00443)
T9 construct: endogenous in cells; host or cells: HeLa S3
T9 sequence (O00443 whole entry): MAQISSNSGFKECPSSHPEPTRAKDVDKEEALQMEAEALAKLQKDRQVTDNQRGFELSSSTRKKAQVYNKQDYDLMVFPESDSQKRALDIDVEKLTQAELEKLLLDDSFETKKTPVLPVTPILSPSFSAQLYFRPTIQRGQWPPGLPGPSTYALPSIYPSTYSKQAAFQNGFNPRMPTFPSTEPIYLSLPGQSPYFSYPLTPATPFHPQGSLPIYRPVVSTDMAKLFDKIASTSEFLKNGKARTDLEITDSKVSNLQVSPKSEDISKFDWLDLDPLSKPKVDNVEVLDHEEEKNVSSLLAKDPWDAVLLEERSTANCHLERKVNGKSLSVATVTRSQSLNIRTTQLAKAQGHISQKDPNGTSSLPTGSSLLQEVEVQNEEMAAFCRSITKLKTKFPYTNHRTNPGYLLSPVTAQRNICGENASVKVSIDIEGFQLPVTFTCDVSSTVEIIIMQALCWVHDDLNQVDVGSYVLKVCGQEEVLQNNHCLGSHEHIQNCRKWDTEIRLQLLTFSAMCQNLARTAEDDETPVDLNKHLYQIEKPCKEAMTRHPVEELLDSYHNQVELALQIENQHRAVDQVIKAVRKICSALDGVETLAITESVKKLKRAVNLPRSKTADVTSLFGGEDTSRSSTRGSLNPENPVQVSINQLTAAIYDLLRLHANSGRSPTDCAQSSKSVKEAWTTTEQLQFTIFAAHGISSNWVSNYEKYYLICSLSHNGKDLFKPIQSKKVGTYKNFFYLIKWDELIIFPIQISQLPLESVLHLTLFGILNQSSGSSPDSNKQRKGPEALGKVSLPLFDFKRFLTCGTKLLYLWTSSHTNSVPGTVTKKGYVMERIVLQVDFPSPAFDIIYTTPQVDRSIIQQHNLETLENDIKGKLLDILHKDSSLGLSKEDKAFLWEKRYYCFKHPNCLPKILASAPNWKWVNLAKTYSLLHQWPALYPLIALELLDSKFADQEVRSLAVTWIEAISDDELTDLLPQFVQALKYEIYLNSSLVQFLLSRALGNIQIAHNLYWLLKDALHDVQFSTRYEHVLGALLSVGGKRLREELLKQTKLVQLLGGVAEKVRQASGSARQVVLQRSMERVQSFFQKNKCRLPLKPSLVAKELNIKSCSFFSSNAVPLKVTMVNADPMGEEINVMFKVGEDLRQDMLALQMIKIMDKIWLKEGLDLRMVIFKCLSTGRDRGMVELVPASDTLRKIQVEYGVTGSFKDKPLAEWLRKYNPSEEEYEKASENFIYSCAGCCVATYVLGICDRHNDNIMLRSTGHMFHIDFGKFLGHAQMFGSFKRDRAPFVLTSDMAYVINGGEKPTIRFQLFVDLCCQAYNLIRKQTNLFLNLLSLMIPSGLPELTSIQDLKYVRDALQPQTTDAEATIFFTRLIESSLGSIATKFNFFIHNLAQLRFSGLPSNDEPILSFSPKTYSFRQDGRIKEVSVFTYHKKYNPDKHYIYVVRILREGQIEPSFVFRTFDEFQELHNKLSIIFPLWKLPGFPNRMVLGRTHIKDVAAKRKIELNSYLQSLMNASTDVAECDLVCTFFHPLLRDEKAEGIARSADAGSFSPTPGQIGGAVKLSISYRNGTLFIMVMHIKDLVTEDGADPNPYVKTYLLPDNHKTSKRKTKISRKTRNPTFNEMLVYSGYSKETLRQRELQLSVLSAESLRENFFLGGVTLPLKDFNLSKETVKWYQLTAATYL
How it was run: as §1

[2] = biological target: T10, PKACa (PRKACA, IPI00396630) (Homo sapiens, UniProt P17612)
T10 construct: endogenous in cells; host or cells: HeLa S3
How it was run: as §1

PKN2 (IPI00002804) = biological target: T11, PKN2 (IPI00002804) (Homo sapiens, UniProt Q16513)
T11 construct: endogenous in cells; host or cells: HeLa S3
How it was run: as §1

[3] = biological target: T12, TNIK/ZC2 (TNIK, IPI00514275) (Homo sapiens, UniProt Q9UKE5)
T12 construct: endogenous in cells; host or cells: HeLa S3
How it was run: as §1

[4] = control beads vs first incubation

For `CC(C)n1c(=O)ccc2cnc(Nc3ccc(OCCN)cc3)nc21` [V16742], the “rAVERAGE (CTRL/1 INC)” value (2-PDE (IPI00174390); [4]) was 0.03, the Ki (2-PDE (IPI00174390); immobilized VI16742) was 100 µM and the “rAVERAGE (2 INC/1 INC)” value (2-PDE (IPI00174390); second vs first incubation) was 0.66. For the same compound, the “r (3 MG/1 MG LYSATE)” value (CDK4 (IPI00007811); 3 mg vs 1 mg lysate) was 1.77, the “r (5 h/2.5 h INC. TIME)” value (CDK4 (IPI00007811); 5 h vs 2.5 h incubation time) was 1.03 and the “rAVERAGE (CTRL/1 INC)” value (CDK4 (IPI00007811); [4]) was 0.07. The Ki (CDK4 (IPI00007811); immobilized VI16742) was 511 µM, the “rAVERAGE (2 INC/1 INC)” value (CDK4 (IPI00007811); second vs first incubation) was 0.91 and the “rAVERAGE (CTRL/1 INC)” value (DAPK2 (IPI00033388); [4]) was 0.11. The Ki (DAPK2 (IPI00033388); immobilized VI16742) was 171 µM, the “rAVERAGE (2 INC/1 INC)” value (DAPK2 (IPI00033388); second vs first incubation) was 0.77 and the “r (3 MG/1 MG LYSATE)” value (FN3KRP (IPI00099986); 3 mg vs 1 mg lysate) was 2.02. For the same compound, the “r (5 h/2.5 h INC. TIME)” value (FN3KRP (IPI00099986); 5 h vs 2.5 h incubation time) was 0.95, the “rAVERAGE (CTRL/1 INC)” value (FN3KRP (IPI00099986); [4]) was 0.07 and the Ki (FN3KRP (IPI00099986); immobilized VI16742) was 117 µM. For the same compound, the “rAVERAGE (2 INC/1 INC)” value (FN3KRP (IPI00099986); second vs first incubation) was 0.69, the “rAVERAGE (CTRL/1 INC)” value (LOK (STK10, IPI00304742); [4]) was 0.07 and the Ki (LOK (STK10, IPI00304742); immobilized VI16742) was 164 µM. The “rAVERAGE (2 INC/1 INC)” value (LOK (STK10, IPI00304742); second vs first incubation) was 0.76, the “r (5 h/2.5 h INC. TIME)” value (MAP2K1 (IPI00219604); 5 h vs 2.5 h incubation time) was 1.68 and the “rAVERAGE (CTRL/1 INC)” value (MAP2K1 (IPI00219604); [4]) was 0.07. For the same compound, the Ki (MAP2K1 (IPI00219604); immobilized VI16742) was 180 µM, the “rAVERAGE (2 INC/1 INC)” value (MAP2K1 (IPI00219604); second vs first incubation) was 0.78 and the “r (5 h/2.5 h INC. TIME)” value (MAP2K3 (IPI00218858); 5 h vs 2.5 h incubation time) was 1.60. For the same compound, the “rAVERAGE (CTRL/1 INC)” value (MAP2K3 (IPI00218858); [4]) was 0.05, the Ki (MAP2K3 (IPI00218858); immobilized VI16742) was 150 µM and the “rAVERAGE (2 INC/1 INC)” value (MAP2K3 (IPI00218858); second vs first incubation) was 0.74. For the same compound, the “rAVERAGE (CTRL/1 INC)” value [1, 4] was 0.03, the Ki ([1]; immobilized VI16742) was 217 µM and the “rAVERAGE (2 INC/1 INC)” value ([1]; second vs first incubation) was 0.81. The “rAVERAGE (CTRL/1 INC)” value (PIK3C2A (IPI00002580); [4]) was 0.18, the Ki (PIK3C2A (IPI00002580); immobilized VI16742) was 104 µM and the “rAVERAGE (2 INC/1 INC)” value (PIK3C2A (IPI00002580); second vs first incubation) was 0.67. The “r (3 MG/1 MG LYSATE)” value ([2]; 3 mg vs 1 mg lysate) was 2.18, the “r (5 h/2.5 h INC. TIME)” value ([2]; 5 h vs 2.5 h incubation time) was 1.76 and the “rAVERAGE (CTRL/1 INC)” value [2, 4] was 0.04. For the same compound, the Ki ([2]; immobilized VI16742) was 305 µM, the “rAVERAGE (2 INC/1 INC)” value ([2]; second vs first incubation) was 0.85 and the “r (3 MG/1 MG LYSATE)” value (PKN2 (IPI00002804); 3 mg vs 1 mg lysate) was 2.87. For the same compound, the “r (5 h/2.5 h INC. TIME)” value (PKN2 (IPI00002804); 5 h vs 2.5 h incubation time) was 1.35, the “rAVERAGE (CTRL/1 INC)” value (PKN2 (IPI00002804); [4]) was 0.03 and the Ki (PKN2 (IPI00002804); immobilized VI16742) was 115 µM. For the same compound, the “rAVERAGE (2 INC/1 INC)” value (PKN2 (IPI00002804); second vs first incubation) was 0.69, the “r (5 h/2.5 h INC. TIME)” value ([3]; 5 h vs 2.5 h incubation time) was 1.27 and the “rAVERAGE (CTRL/1 INC)” value [3, 4] was 0.19. For the same compound, the Ki ([3]; immobilized VI16742) was 108 µM and the “rAVERAGE (2 INC/1 INC)” value ([3]; second vs first incubation) was 0.67.
